Measured values: US12180207B2 (ARRAY BIOPHARMA INC., priority 2018, dated 2024)

What was measured:
[1] = target: recombinant human FGFR2 cytoplasmic domain (amino acids 403-822) (Homo sapiens (Human), UniProt P21802); experiment: FGFR2 enzyme activity assay (LanthaScreen TR-FRET); type: biochemical; conditions: 15 μM ATP, 20 min incubation at 22° C., average of multiple determinations if made, read-out: FGFR2 Enz FRET IC50
Summary of the method: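 His-tagged FGFR2 cytoplasmic domain ([…]) with 100 nM Alexa Fluor 647-poly-GT peptide and 15 μM ATP in HEPES/MgCl2/Triton buffer, pH 7.5, 2% DMSO, 20 min at 22 °C. EDTA-quenched, Eu-PY20 antibody added, TR-FRET read after 60 min.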

[2] = target: FGFR3 (SEQ ID NO: 5, amino acids 449-759) (Homo sapiens (Human), UniProt P22607); experiment: LC/MS FGFR3 kobs assay (covalent protein modification); type: binding; conditions: 500 nM FGFR3, 3 μM compound
Sequence of FGFR3 (SEQ ID NO: 5, amino acids 449-759) (P22607 449-759): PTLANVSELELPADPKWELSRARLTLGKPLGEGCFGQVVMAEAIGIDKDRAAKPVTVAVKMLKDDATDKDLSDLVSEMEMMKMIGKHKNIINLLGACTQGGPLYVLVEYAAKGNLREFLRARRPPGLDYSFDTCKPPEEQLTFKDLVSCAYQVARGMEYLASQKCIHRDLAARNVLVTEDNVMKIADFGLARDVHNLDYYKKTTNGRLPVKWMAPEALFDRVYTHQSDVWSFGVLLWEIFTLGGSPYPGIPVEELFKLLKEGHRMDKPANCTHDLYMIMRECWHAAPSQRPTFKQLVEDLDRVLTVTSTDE
Summary of the method: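 The observed rate constant kobs comes from an exponential decay fit of percent unmodified kinase over time. Covalent modification was quantified by Q-TOF LC/MS of formic acid-quenched samples, normalized against DMSO controls.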

[3] = target: HEK-293 cells transfected with dox-inducible human wild type FGFR3 (Homo sapiens (Human), UniProt P22607); experiment: FGFR3 pFGFR cell assay (ELISA); type: cell-based; conditions: HEK-293 dox-inducible FGFR3, 1 hour compound, 100 ng/ml FGF-acidic
Sequence of HEK-293 cells transfected with dox-inducible human wild type FGFR3 (P22607 23-806): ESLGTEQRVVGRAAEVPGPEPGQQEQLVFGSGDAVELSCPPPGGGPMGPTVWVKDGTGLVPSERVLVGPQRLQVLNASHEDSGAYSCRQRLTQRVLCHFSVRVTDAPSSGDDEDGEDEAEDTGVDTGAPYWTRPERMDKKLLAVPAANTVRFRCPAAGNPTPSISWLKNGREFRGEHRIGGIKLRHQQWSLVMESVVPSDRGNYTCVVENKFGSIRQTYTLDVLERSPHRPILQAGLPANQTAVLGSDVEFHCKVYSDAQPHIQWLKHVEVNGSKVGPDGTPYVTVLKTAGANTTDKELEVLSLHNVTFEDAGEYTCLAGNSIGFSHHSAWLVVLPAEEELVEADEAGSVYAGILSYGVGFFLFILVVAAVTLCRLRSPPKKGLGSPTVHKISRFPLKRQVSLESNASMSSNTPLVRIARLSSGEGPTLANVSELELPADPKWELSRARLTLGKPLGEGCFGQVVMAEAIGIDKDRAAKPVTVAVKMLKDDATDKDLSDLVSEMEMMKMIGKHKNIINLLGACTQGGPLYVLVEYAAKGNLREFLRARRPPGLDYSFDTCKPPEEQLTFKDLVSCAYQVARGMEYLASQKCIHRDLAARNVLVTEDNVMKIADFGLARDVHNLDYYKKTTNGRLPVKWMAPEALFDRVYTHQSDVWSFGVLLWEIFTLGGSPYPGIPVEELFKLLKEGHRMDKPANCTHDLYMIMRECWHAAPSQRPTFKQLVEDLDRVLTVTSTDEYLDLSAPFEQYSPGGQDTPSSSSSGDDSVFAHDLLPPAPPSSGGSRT
Summary of the method: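 Doxycycline-induced (1 μg/ml) HEK-293 cells expressing wild-type human FGFR3, treated 1 h with compound (1:3 series, top final 5 μM), then stimulated 5 min with 100 ng/ml FGF-acidic. Phospho-FGFR3 measured by ELISA (total FGFR3 capture, phosphotyrosine detection, OD 450 nm); IC50 from 4-parameter fit of POC values.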

[4] = target: HEK-293 cells transfected with dox-inducible human wild type FGFR1 (Homo sapiens (Human), UniProt P11362); experiment: FGFR1 pERK cell assay; type: cell-based; conditions: HEK-293 dox-inducible FGFR1, 1 hour compound, 100 ng/ml FGF-acidic; maximum concentration 5 μM
Sequence of HEK-293 cells transfected with dox-inducible human wild type FGFR1 (P11362 22-822): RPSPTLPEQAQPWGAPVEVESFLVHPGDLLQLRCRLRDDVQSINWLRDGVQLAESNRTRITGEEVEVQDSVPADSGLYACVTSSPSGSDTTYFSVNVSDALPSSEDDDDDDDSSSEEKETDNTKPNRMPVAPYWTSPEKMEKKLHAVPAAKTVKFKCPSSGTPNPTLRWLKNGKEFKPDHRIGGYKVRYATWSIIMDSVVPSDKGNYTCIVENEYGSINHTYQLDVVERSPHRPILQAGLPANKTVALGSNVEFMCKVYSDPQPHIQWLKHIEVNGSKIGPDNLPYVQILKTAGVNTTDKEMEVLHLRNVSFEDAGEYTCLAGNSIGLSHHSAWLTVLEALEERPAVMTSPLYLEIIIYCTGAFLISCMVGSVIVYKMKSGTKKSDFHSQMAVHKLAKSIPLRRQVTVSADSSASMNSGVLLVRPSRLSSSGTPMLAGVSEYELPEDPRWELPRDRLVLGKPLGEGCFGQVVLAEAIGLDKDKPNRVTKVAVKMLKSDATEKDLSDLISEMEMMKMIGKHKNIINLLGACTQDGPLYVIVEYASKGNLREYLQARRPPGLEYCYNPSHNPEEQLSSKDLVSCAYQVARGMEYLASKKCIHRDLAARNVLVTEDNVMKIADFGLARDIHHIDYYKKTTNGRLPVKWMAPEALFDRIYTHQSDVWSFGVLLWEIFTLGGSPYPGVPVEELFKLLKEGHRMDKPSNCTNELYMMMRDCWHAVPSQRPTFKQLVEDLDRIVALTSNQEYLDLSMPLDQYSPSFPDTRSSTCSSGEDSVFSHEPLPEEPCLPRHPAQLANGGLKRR
Summary of the method: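 In HEK-293 cells with dox-induced human wild-type FGFR1, compounds (1:3 dilutions, top 5 μM final) were applied 1 h at 37°C before 5 min stimulation with 100 ng/ml FGF-acidic. Phospho-ERK1/2 measured by MSD sandwich immunoassay; IC50 from 4-parameter fit of POC versus vehicle and control compound.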

Sequence of recombinant human FGFR2 cytoplasmic domain (amino acids 403-822) (P21802 402-821): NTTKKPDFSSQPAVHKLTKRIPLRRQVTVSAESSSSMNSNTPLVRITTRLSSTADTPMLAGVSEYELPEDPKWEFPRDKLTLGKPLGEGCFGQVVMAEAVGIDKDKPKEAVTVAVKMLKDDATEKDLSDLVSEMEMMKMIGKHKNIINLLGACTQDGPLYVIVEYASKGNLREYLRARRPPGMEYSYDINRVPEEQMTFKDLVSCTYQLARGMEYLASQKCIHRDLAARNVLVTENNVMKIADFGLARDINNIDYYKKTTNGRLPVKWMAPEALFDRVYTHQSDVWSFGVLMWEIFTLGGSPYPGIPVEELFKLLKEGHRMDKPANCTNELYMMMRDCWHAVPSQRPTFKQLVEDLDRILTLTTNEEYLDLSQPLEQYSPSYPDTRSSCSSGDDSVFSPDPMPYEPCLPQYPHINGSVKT

Row | SMILES | IC50 [1] [nM] | FGFR3 Enz kobs [2] [min⁻¹] | IC50 [3] [nM] | IC50 [4] [nM]
1 | C=CC(=O)N1CC(C(=O)N2CCC(n3cc(-c4cc(OC)c5c(C#N)cnn5c4)c(C)n3)CC2)C1 [Example 94, 6-(1-(1-(1-acryloylazetidine-3-carbonyl)piperidin-4-yl)-3-methyl-1H-pyrazol-4-yl)-4-methoxypyrazolo[1,5-a]pyridine-3-carbonitrile] | 22 | 0.01518 | 336 | 4500
2 | C=CS(=O)(=O)Nc1cccc(C(=O)N2CCC(n3cc(-c4cc(OC)c5c(C#N)cnn5c4)cn3)CC2)c1 [Example 188, N-(3-(4-(4-(3-cyano-4-methoxypyrazolo[1,5-a]pyridin-6-yl)-1H-pyrazol-1-yl)piperidine-1-carbonyl)phenyl)eth-enesulfonamide] | 5 | 0.08524 | 24 | 134
